The results in this text go back to ChEMBL document CHEMBL1909582, “Identification of novel NK1/NK3 dual antagonists for the potential treatment of schizophrenia” (Bioorg Med Chem Lett, 2011).

Experiment [1] deals with T1, Substance-P receptor (Homo sapiens, UniProt P25103). Put plainly: Antagonist activity at human recombinant NK1 receptor expressed in human U20S cells assessed as effect on substance P-induced intracellular calcium level by FLIPR assay. Type of experiment: functional, cell-based, U2OS.
T1 sequence (P25103 whole entry): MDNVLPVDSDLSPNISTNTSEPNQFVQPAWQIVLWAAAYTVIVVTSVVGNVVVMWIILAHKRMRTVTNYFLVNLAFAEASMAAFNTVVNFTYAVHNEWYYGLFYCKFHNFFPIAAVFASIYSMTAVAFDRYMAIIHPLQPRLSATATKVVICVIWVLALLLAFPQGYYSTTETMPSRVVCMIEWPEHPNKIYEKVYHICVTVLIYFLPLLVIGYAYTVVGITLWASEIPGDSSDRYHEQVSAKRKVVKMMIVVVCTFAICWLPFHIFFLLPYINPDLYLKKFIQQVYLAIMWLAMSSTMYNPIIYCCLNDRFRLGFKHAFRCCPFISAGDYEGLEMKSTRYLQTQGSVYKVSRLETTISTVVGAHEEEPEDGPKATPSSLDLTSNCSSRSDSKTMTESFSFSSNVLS
The target of experiment [2] is T1, Substance-P receptor. Put plainly: Antagonist activity at human recombinant NK1 receptor expressed in human U20S cells assessed as substance P maximal stimulation at 3 nM by FLIPR assay. The format is functional, cell-based. The conditions noted are these: U2OS.
The next experiment concerns the target T2, Neuromedin-K receptor (Homo sapiens, UniProt P29371).
T2 sequence (P29371 whole entry): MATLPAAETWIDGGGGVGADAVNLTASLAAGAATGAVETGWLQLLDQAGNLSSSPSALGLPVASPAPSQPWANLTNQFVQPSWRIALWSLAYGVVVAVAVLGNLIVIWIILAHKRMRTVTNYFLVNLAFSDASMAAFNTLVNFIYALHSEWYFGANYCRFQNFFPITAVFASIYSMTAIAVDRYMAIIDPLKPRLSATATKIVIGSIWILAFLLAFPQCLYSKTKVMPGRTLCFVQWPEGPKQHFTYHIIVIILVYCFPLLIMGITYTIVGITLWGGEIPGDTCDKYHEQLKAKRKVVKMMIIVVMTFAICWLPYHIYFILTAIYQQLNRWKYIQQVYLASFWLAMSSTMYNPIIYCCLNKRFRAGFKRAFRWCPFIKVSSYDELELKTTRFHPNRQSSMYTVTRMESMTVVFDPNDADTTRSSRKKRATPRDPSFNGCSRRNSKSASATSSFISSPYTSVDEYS
Put plainly: Antagonist activity at human recombinant NK3 receptor expressed in human U20S cells assessed as effect on NKB-induced intracellular calcium level by FLIPR assay. The format is functional, cell-based, U2OS.

The target in experiment [3] is T1, Substance-P receptor. Put plainly: Antagonist activity at human recombinant NK1 receptor expressed in human U20S cells assessed as substance P maximal stimulation at 1 nM by FLIPR assay. Type of experiment: functional, cell-based. As to conditions: U2OS.
The target of experiment [4] is T3, Neuromedin-K receptor (Homo sapiens) (UniProt P29371).
T3 sequence (whole entry): T2 sequence (P29371 whole entry)
Put plainly: Antagonist activity at human recombinant NK3 receptor expressed in human U20S cells assessed as neurokinin B maximal stimulation at 100 nM by FLIPR assay. The conditions noted are these: U2OS.

For experiment [5], the target named is T3, Neuromedin-K receptor (Homo sapiens). Put plainly: Antagonist activity at human recombinant NK3 receptor expressed in human U20S cells assessed as neurokinin B maximal stimulation at 30 nM by FLIPR assay. As to conditions: U2OS.

As to `Cc1cc(F)ccc1-c1cc(C2CNC(=O)C2)ncc1N(C)C(=O)C(C)(C)c1cc(C(F)(F)F)cc(C(F)(F)F)c1` (stereo not drawn), the Ki is under 0.158 nM on Substance-P receptor [1] and 31.6 nM at Neuromedin-K receptor. Further, the Emax on Substance-P receptor [2] stood at 20%; on Substance-P receptor [3] it was 64%.

In the case of `Cc1cc(F)ccc1-c1cc(C2CNC(=O)C2CO)ncc1N(C)C(=O)C(C)(C)c1cc(C(F)(F)F)cc(C(F)(F)F)c1` (racemic) [listing 1 of 2 here], the Ki is 0.251 nM on Substance-P receptor [1] and 7.94 nM on Neuromedin-K receptor.

On to `Cc1cc(F)ccc1-c1cc(C2CC(=O)NC2(CO)CO)ncc1N(C)C(=O)C(C)(C)c1cc(C(F)(F)F)cc(C(F)(F)F)c1` (racemic) [listing 1 of 2 here], for which the Ki was 0.1 nM at Substance-P receptor [1] and 5.01 nM on Neuromedin-K receptor.

For the compound `Cc1cc(F)ccc1-c1cc(C2CC(=O)NC2(CO)CO)ncc1N(C)C(=O)C(C)(C)c1cc(C(F)(F)F)cc(C(F)(F)F)c1` (racemic) [listing 2 of 2 here], the figures for the Emax on Substance-P receptor [2] and at Substance-P receptor [3] were 28% and 89%, respectively.

With `Cc1cc(F)ccc1-c1cc(C2CNC(=O)C2CO)ncc1N(C)C(=O)C(C)(C)c1cc(C(F)(F)F)cc(C(F)(F)F)c1` (racemic) [listing 2 of 2 here], the figures for the Emax at Substance-P receptor [2] and on Substance-P receptor [3] were 63% and 109%, respectively.

Take `Cc1cc(F)ccc1-c1cc(C2CN(C)C(=O)C2CO)ncc1N(C)C(=O)C(C)(C)c1cc(C(F)(F)F)cc(C(F)(F)F)c1` (single isomer, unassigned): the Ki at Substance-P receptor [1] was 0.0631 nM; at Neuromedin-K receptor, 1 nM. In addition, the Emax at Substance-P receptor [2] was determined as 5%; in experiment [4], 56%; at Substance-P receptor [3], 66%; in experiment [5], 67%.

`Cc1cc(F)ccc1-c1cc(C2NC(=O)CC2CO)ncc1N(C)C(=O)C(C)(C)c1cc(C(F)(F)F)cc(C(F)(F)F)c1` (single isomer, unassigned; 8a) [listing 1 of 2 here]: the Ki on Substance-P receptor [1] was 0.0794 nM; at Neuromedin-K receptor, 39.8 nM.

As for `Cc1cc(F)ccc1-c1cc(C2NC(=O)CC2CO)ncc1N(C)C(=O)C(C)(C)c1cc(C(F)(F)F)cc(C(F)(F)F)c1` (single isomer, unassigned; 8a) [listing 2 of 2 here], the results for the Emax at Substance-P receptor [2] and at Substance-P receptor [3] were 25% and 64%, respectively.

`Cc1cc(F)ccc1-c1cc(C2NC(=O)CC2CO)ncc1N(C)C(=O)C(C)(C)c1cc(C(F)(F)F)cc(C(F)(F)F)c1` (single isomer, unassigned; 8b): the results for the inhibition constant Ki at Substance-P receptor [1] and at Neuromedin-K receptor were 0.501 nM and 501 nM, respectively.

Consider `Cc1cc(F)ccc1-c1cc(C2NC(=O)CC2CO)ncc1N(C)C(=O)C(C)(C)c1cc(C(F)(F)F)cc(C(F)(F)F)c1` (single isomer, unassigned; 9a) [listing 1 of 2 here], for which the figures for the Ki on Substance-P receptor [1] and at Neuromedin-K receptor were 0.251 nM and 5.01 nM, respectively.

Turning to `Cc1cc(F)ccc1-c1cc(C2NC(=O)CC2CO)ncc1N(C)C(=O)C(C)(C)c1cc(C(F)(F)F)cc(C(F)(F)F)c1` (single isomer, unassigned; 9a) [listing 2 of 2 here], the Emax at Substance-P receptor [2] worked out at 60%; in experiment [4] it was 74%; on Substance-P receptor [3] it was 98%; in experiment [5], 83%.

In the case of `Cc1cc(F)ccc1-c1cc(C2NC(=O)CC2CO)ncc1N(C)C(=O)C(C)(C)c1cc(C(F)(F)F)cc(C(F)(F)F)c1` (single isomer, unassigned; 9b) [listing 1 of 2 here], the Ki is 0.316 nM on Substance-P receptor [1] and 31.6 nM on Neuromedin-K receptor.

On to `Cc1cc(F)ccc1-c1cc(C2NC(=O)CC2CO)ncc1N(C)C(=O)C(C)(C)c1cc(C(F)(F)F)cc(C(F)(F)F)c1` (single isomer, unassigned; 9b) [listing 2 of 2 here], for which the Emax on Substance-P receptor [2] is 30%; on Substance-P receptor [3], 79%.

`Cc1cc(F)ccc1-c1cc(C2CC(=O)NC2CO)ncc1N(C)C(=O)C(C)(C)c1cc(C(F)(F)F)cc(C(F)(F)F)c1` (single isomer, unassigned; 21a): the Ki at Substance-P receptor [1] is under 0.158 nM; on Neuromedin-K receptor, 25.1 nM.

On to `Cc1cc(F)ccc1-c1cc(C2CC(=O)NC2CO)ncc1N(C)C(=O)C(C)(C)c1cc(C(F)(F)F)cc(C(F)(F)F)c1` (single isomer, unassigned; 21b), for which the values for the Ki on Substance-P receptor [1] and on Neuromedin-K receptor were under 0.158 nM and 794 nM, respectively.

Regarding `Cc1cc(F)ccc1-c1cc(C2CC(=O)NC2CO)ncc1N(C)C(=O)C(C)(C)c1cc(C(F)(F)F)cc(C(F)(F)F)c1` (single isomer, unassigned; 22a) [listing 1 of 2 here], the figures for the Ki at Substance-P receptor [1] and on Neuromedin-K receptor were 0.251 nM and 2 nM, respectively.

In the case of `Cc1cc(F)ccc1-c1cc(C2CC(=O)NC2CO)ncc1N(C)C(=O)C(C)(C)c1cc(C(F)(F)F)cc(C(F)(F)F)c1` (single isomer, unassigned; 22a) [listing 2 of 2 here], the Emax is 39% at Substance-P receptor [2], 76% in experiment [4], 103% at Substance-P receptor [3] and 101% in experiment [5].

With `Cc1cc(F)ccc1-c1cc(C2CC(=O)NC2CO)ncc1N(C)C(=O)C(C)(C)c1cc(C(F)(F)F)cc(C(F)(F)F)c1` (single isomer, unassigned; 22b), the figures for the Ki on Substance-P receptor [1] and on Neuromedin-K receptor were 0.251 nM and 20 nM, respectively.

On to `Cc1cc(F)ccc1-c1cc(C2CNC(=O)C2CO)ncc1N(C)C(=O)C(C)(C)c1cc(C(F)(F)F)cc(C(F)(F)F)c1` (single isomer, unassigned; enantiomer 1) [listing 1 of 2 here], for which the Ki at Substance-P receptor [1] was 0.0501 nM; at Neuromedin-K receptor, 79.4 nM.

As to `Cc1cc(F)ccc1-c1cc(C2CC(=O)NC2(CO)CO)ncc1N(C)C(=O)C(C)(C)c1cc(C(F)(F)F)cc(C(F)(F)F)c1` (single isomer, unassigned; enantiomer 1), the inhibition constant Ki is under 0.158 nM at Substance-P receptor [1] and 6.31 nM at Neuromedin-K receptor.

Turning to `Cc1cc(F)ccc1-c1cc(C2CNC(=O)C2CO)ncc1N(C)C(=O)C(C)(C)c1cc(C(F)(F)F)cc(C(F)(F)F)c1` (single isomer, unassigned; enantiomer 1) [listing 2 of 2 here], the Emax at Substance-P receptor [2] came out at 19%; at Substance-P receptor [3], 103%.

Regarding `Cc1cc(F)ccc1-c1cc(C2CNC(=O)C2CO)ncc1N(C)C(=O)C(C)(C)c1cc(C(F)(F)F)cc(C(F)(F)F)c1` (single isomer, unassigned; enantiomer 2) [listing 1 of 2 here], the Ki at Substance-P receptor [1] is 0.158 nM; on Neuromedin-K receptor, 1.58 nM.

`Cc1cc(F)ccc1-c1cc(C2CC(=O)NC2(CO)CO)ncc1N(C)C(=O)C(C)(C)c1cc(C(F)(F)F)cc(C(F)(F)F)c1` (single isomer, unassigned; enantiomer 2): the results for the Ki on Substance-P receptor [1] and on Neuromedin-K receptor were under 0.158 nM and 631 nM, respectively.

On to `Cc1cc(F)ccc1-c1cc(C2CNC(=O)C2CO)ncc1N(C)C(=O)C(C)(C)c1cc(C(F)(F)F)cc(C(F)(F)F)c1` (single isomer, unassigned; enantiomer 2) [listing 2 of 2 here], for which the Emax turned out to be 37% on Substance-P receptor [2] and 101% on Substance-P receptor [3].
